Measurements taken from patent publication US9795135B2, “Binary fungicidal composition” (BAYER CORPSCIENCE AKTIENGESELLSCHAFT, priority 2013, dated 2017).

Legend:
[1] = system: Alternaria solani; assay: Alternaria test (tomatoes) / preventive; assay type: in vivo; conditions: 80 ppm a.i.; tomatoes sprayed 24 h before inoculation; evaluated 3 days after inoculation
Experimental: Alternaria Test (Tomatoes)/Preventive
(§1) Biological control agents and diverse chemical active compounds were tested solo and in a mixture of both. The biological control agents SERENADE® DPZ (comprising the biological control agent B1.1.18, Bacillus subtilis, strain AQ30002, Accession No. NRRL B-50421), SERENADE® ASO (comprising the biological control agent B1.1.1, Bacillus subtilis, strain QST713/AQ713, Accession No. NRRL B-21661) and SONATA® (comprising the biological control agent B1.1.6, Bacillus pumilus, strain QST2808, Accession No. NRRL B-30087) were diluted with water to the desired application rate of 100 ppm a.i. to 500 ppm a.i., referring to the amount of 1.34% Bacillus subtilis or 1.38% Bacillus pumilis product.
The chemical compounds were solved in acetone+dimethylacetamide in a ratio of 1/1+2% PS 16 (Alkylarylpolyglykolether) and diluted with water or the prepared bacteria suspension. Chemical compounds were tested in the concentration of 80 ppm a.i.
In order to test the activity, young plants of tomatoes (21 d after sowing) were sprayed with the preparation of active compound at the stated rate of application. 24 h after application, the plants were inoculated with an aqueous spore suspension (7.500 spores/ml) of Alternaria solani. The wetted plants were then placed in an incubation cabinet at approximately 20° C. and a relative atmospheric humidity of 100% and darkness.
The test was evaluated 3 days after the inoculation. Assessment: % infested leaf. 0% efficacy corresponds to the level of disease in the untreated control while an efficacy of 100% means that no disease is observed.

[2] = system: Sphaerotheca fuliginea; assay: Sphaerotheca test (cucumbers) / preventive; assay type: in vivo; conditions: 80 ppm a.i.; cucumber sprayed 24 h before inoculation; evaluated 7 d after inoculation
Experimental: Sphaerotheca Test (Cucumbers)/Preventive
as §1, with “B-50421), SERENADE” for “B-50421), SERENADE®”
The chemical compounds were solved in acetone+dimethylacetamide in the ratio 1/1+2% PS 16 (Alkylarylpolyglykolether) and diluted with water or the prepared bacteria suspension. Chemical compounds were tested in the concentration of 80 ppm a.i.
In order to test the activity, young plants (kotyledones are fully developed) of cucumber c.v. “Delikatess” were sprayed with the undermentioned preparation of compounds at the stated time of application. 24 h after application, the plants were inoculated with an aqueous spore suspension of Sphaerotheca fuliginea. Infested plants were stored in greenhouse at 22° C. and 70% relative humidity.
The test was evaluated 7 d after inoculation. Assessment: % infested leaf. 0% efficacy corresponds to the level of disease in the untreated control while an efficacy of 100% means that no disease is observed.

Structure (SMILES)	Efficacy in % Found* [1] [%]	Efficacy in % Found* [2] [%]
CC1(C)N=C(c2cnc3ccccc3c2)c2ccccc2C1(F)F [(I-2)]	13	35
CC1(C)N=C(c2cnc3ccccc3c2)c2cccc(F)c2C1(F)F [(I-3)]	37	32
CC1(C)N=C(c2cnc3ccccc3c2)c2cccc(F)c2C1(C)C [(I-1)]	37	49
